# Where “and” joins values, the source holds several entries; their conditions need not be identical. Identical values can stand only once. Like-named read-outs stand apart in the source and are kept apart here.
# What was measured:
# LMWPTP = target: T1, LMWPTP (Homo sapiens, UniProt P24666); assay: PTP inhibition assay (pNPP); assay type: biochemical
# T1 sequence (P24666 1-158): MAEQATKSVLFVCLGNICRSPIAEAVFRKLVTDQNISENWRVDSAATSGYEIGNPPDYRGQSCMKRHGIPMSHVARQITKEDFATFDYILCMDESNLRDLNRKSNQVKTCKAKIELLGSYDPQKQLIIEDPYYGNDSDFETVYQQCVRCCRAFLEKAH
# Laforin = target: T2, Laforin (Homo sapiens, UniProt O95278); assay: PTP inhibition assay (pNPP); assay type: biochemical; conditions: pNPP at Km, pH 7.0, 25° C.
# T2 sequence (O95278 1-331): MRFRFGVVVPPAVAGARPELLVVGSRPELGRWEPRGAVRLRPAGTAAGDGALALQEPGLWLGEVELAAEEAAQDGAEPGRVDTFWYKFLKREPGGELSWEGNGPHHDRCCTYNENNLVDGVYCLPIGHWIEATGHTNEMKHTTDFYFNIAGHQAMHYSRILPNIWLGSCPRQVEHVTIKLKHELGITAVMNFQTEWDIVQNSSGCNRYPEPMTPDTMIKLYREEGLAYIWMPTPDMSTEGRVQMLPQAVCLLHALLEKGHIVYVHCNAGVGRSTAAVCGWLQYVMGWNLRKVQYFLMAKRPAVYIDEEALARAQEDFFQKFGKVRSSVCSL
# YopH = YopH (Yersinia enterocolitica, UniProt P15273); assay: biochemical
# Chain of YopH (P15273 whole entry, looked up): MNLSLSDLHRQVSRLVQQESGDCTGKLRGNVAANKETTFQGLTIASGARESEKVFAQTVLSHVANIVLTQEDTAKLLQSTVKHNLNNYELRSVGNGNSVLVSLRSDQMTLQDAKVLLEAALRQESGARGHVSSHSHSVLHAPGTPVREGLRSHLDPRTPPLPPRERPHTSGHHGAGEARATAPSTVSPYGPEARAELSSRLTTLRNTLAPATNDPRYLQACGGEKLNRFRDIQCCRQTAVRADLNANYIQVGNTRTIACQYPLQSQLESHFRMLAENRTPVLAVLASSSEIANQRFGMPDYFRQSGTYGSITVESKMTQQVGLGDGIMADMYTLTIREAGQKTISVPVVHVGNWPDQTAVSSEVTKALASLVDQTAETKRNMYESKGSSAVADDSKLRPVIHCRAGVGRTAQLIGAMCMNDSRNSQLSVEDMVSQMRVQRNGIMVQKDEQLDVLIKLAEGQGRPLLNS
# TbPTP1 = TbPTP1 (Trypanosoma brucei brucei, UniProt Q38AT7); assay: PTP inhibition assay (pNPP); assay type: biochemical; conditions: pH 7.0, 25° C.
# Chain of TbPTP1 (Q38AT7 entry or part of it): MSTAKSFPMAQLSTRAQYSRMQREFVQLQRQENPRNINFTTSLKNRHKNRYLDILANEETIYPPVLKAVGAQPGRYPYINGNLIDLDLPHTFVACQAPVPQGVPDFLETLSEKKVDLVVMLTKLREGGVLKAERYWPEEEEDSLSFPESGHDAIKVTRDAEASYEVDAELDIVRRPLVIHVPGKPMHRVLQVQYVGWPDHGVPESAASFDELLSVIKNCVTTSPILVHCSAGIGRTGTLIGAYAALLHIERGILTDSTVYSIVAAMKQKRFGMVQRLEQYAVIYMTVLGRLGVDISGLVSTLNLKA
# LAR = LAR (Homo sapiens, UniProt P10586); assay: PTP inhibition assay (pNPP); assay type: biochemical
# Chain of LAR (P10586 30-1907): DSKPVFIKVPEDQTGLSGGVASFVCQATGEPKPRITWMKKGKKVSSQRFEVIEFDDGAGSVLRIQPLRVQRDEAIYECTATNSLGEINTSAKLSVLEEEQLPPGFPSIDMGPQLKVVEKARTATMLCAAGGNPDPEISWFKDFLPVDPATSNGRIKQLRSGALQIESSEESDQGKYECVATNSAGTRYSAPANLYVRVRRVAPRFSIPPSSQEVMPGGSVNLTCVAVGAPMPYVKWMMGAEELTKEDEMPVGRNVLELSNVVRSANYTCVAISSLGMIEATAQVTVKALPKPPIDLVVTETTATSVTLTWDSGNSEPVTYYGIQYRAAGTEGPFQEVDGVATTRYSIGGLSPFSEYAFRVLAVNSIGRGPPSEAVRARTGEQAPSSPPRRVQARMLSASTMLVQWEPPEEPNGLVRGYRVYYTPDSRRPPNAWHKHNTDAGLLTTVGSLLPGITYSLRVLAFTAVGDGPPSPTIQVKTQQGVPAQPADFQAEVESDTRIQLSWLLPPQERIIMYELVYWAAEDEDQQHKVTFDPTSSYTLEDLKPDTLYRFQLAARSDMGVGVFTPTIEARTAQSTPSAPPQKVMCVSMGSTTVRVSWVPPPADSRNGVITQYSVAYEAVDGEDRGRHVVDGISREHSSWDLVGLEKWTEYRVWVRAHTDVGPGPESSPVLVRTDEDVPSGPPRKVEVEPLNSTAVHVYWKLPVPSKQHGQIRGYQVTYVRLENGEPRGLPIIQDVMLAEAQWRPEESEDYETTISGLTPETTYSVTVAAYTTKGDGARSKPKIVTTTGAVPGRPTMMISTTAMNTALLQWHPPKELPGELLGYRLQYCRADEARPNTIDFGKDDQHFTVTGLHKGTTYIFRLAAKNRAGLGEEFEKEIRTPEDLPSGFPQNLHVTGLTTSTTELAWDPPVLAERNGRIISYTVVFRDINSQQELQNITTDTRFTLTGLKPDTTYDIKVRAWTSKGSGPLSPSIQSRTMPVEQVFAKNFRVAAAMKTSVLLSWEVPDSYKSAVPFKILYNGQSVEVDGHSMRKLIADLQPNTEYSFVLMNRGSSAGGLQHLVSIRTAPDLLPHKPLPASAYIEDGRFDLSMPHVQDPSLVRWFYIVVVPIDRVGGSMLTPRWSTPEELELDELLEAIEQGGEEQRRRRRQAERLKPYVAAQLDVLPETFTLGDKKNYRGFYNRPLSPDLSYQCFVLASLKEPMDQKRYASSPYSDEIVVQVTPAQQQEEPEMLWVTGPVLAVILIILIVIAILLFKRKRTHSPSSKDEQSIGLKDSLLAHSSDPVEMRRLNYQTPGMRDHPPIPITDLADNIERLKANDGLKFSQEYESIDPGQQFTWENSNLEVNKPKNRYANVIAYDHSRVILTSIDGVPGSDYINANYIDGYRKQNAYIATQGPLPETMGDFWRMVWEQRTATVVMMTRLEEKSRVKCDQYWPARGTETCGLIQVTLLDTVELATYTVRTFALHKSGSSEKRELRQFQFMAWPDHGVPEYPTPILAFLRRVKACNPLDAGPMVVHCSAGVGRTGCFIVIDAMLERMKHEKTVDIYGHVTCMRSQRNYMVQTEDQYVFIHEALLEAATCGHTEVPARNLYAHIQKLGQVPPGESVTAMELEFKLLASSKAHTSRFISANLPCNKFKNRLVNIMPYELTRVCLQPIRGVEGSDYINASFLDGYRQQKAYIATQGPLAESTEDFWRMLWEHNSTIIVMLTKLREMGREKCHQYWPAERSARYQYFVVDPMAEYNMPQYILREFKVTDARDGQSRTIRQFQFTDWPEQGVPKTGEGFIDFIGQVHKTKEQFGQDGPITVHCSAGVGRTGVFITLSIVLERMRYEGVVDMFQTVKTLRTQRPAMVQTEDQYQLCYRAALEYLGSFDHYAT
# PTPα = PTPα (Homo sapiens, UniProt P18433); assay: PTP inhibition assay (pNPP); assay type: biochemical
# Chain of PTPα (P18433 20-802): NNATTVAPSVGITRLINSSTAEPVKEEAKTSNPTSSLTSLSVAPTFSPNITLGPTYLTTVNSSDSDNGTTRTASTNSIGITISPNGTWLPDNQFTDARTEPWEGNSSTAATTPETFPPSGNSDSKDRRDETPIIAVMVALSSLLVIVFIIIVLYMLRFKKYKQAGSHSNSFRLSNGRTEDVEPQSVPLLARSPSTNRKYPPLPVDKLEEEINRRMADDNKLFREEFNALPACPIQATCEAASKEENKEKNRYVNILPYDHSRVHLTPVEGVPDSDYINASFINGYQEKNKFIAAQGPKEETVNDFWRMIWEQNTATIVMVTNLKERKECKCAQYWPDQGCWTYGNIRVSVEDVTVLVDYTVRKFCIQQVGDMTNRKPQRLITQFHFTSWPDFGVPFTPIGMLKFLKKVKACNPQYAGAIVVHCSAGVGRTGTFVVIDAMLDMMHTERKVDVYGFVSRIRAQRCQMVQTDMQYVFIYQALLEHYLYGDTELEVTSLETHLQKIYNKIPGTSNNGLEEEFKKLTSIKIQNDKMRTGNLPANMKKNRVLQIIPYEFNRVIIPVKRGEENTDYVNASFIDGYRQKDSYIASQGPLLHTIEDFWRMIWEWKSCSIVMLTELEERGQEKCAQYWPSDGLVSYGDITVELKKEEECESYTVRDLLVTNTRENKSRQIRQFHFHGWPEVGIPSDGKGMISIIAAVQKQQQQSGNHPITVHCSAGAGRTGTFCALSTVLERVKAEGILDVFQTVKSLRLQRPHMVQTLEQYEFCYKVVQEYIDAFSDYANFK
# PTPβ = PTPβ (Homo sapiens, UniProt P23467); assay: PTP inhibition assay (pNPP); assay type: biochemical
# PTPε = PTPε (Homo sapiens, UniProt P23469); assay: PTP inhibition assay (pNPP); assay type: biochemical
# Chain of PTPε (P23469 20-700): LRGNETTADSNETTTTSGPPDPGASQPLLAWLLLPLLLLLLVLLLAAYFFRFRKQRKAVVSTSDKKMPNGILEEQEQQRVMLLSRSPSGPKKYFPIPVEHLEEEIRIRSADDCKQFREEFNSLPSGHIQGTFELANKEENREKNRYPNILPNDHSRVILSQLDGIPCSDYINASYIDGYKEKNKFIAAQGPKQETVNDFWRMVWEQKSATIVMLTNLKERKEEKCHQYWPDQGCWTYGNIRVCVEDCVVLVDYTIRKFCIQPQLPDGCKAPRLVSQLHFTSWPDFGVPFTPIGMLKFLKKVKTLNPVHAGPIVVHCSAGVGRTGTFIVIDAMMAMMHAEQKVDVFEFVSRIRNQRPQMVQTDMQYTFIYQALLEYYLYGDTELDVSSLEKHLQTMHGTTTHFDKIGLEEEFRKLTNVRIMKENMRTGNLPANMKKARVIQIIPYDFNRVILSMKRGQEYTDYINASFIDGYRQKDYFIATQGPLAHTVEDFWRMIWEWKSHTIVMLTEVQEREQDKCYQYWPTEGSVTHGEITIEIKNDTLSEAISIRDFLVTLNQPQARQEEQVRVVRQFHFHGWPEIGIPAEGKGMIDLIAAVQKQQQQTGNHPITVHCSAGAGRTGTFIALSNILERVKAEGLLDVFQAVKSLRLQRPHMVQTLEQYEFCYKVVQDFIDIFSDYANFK
# CDC14A = target: T3, CDC14A (Homo sapiens, UniProt Q9UNH5); assay: PTP inhibition assay (pNPP); assay type: biochemical
# T3 sequence (Q9UNH5 1-594): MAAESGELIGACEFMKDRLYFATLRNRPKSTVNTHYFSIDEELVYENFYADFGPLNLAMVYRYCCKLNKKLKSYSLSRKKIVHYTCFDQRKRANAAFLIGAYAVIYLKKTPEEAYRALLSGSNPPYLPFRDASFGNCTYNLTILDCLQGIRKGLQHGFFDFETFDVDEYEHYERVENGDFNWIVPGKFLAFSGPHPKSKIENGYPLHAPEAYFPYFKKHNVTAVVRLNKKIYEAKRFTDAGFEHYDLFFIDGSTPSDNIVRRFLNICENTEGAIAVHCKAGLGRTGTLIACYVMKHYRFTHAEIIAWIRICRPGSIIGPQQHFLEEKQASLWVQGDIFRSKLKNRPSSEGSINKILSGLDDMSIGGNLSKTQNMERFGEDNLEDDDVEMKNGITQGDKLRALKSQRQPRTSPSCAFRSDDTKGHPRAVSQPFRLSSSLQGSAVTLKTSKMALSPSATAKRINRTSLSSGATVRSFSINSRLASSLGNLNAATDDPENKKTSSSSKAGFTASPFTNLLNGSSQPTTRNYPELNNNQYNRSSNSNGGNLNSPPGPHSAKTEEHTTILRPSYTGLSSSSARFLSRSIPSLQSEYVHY
# PP5 = target: T4, PP5 (Homo sapiens, UniProt P53041); assay: Phosphatase inhibition assay (pNPP)
# T4 sequence (P53041 1-499): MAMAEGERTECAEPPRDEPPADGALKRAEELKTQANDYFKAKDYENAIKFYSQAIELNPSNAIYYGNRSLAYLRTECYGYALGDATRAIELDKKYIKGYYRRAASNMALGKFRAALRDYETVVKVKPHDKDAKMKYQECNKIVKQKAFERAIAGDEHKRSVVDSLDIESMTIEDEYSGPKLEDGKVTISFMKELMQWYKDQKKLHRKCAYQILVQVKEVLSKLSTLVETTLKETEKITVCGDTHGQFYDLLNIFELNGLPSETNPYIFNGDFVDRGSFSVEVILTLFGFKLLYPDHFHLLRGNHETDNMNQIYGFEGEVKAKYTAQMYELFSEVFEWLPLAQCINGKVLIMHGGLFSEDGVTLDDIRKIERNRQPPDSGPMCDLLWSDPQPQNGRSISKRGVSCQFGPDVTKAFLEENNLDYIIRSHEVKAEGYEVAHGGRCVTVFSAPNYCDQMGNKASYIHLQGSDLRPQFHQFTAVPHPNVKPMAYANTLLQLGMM
# TcPTP = target: T5, TcPTP (Homo sapiens, UniProt P17706); assay: PTP inhibition assay (pNPP); assay type: biochemical
# T5 sequence (P17706 1-415): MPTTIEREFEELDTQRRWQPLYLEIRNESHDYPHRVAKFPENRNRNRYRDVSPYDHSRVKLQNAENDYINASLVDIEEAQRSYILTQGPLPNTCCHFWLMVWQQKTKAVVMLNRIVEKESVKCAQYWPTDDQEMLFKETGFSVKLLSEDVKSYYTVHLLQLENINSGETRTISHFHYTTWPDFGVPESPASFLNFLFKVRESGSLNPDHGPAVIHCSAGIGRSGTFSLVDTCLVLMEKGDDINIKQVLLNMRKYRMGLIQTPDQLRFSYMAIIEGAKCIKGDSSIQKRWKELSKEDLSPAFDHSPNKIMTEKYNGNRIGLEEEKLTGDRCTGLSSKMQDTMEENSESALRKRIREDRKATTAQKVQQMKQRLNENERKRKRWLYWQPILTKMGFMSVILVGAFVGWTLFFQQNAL
# FAP1 = FAP1 (Homo sapiens, UniProt Q12923); assay: PTP inhibition assay (pNPP); assay type: biochemical
# [1] = pNPP at Km, read-out: IC50 TbPTP1
# [2] = pNPP at Km, pH 7.0, 25° C., read-out: IC50 TcPTP
# [3] = pNPP at Km, pH 7.0, 25° C., read-out: IC50 FAP1
SMILES,"IC50 (LMWPTP; pNPP at Km, pH 7.0, 25° C.)",IC50 (Laforin; IC50 Laforin) [µM],IC50 (YopH) [µM],IC50 (TbPTP1; [1]),IC50 (LAR) [µM],IC50 (PTPα) [µM],IC50 (PTPβ) [µM],IC50 (PTPε) [µM],IC50 (CDC14A) [µM],IC50 (PP5) [µM],IC50 (Laforin; read-out: IC50 Laforin),IC50 (TcPTP; [2]),IC50 (FAP1; [3]),IC50 (LMWPTP; pH 7) [µM],"IC50 (TbPTP1; IC50 TbPTP1, pNPP at Km) [µM]",IC50 (TcPTP; IC50 TcPTP) [µM],IC50 (FAP1; IC50 FAP1) [µM]
Cc1c(Br)cc(NC(=O)CS(=O)(=O)O)cc1Br,4.2 µM,> 100,> 100,> 100 µM,> 100,> 100,> 100,> 100,> 100,> 100,,,,,,,
O=C(CS(=O)(=O)O)Nc1ccc2nc(C(F)(F)F)[nH]c2c1,1.86 µM,,> 100,> 100 µM,> 100,> 100,> 100,> 100,> 100,> 100,> 100 µM,> 100 µM,> 100 µM,,,,
O=C(CS(=O)(=O)O)Nc1cnc2ccccc2c1,12 µM,,> 100,> 100 µM,> 100,> 100,> 100,> 100,> 100,> 100,> 100 µM,> 100 µM,> 100 µM,,,,
O=C(NCCNC(=O)C(c1ccccc1)S(=O)(=O)O)c1cccc(C(=O)c2ccccc2)c1 (stereo not shown) [Compound L319-02-A60],> 200 µM,,,> 200 µM,,,,,,,9 µM,> 200 µM,> 200 µM,,,,
O=C(NCc1ccc(NC(=O)C(c2ccccc2)S(=O)(=O)O)cc1)c1ccccc1-c1ccc(C(F)(F)F)cc1 (stereo not shown) [Compound L319-05-A64],29 µM,,,93 µM,,,,,,,0.8 µM,96 µM,70 µM,,,,
CCCCc1ccc(NC(=O)C(=O)Nc2ccccc2NC(=O)C(c2ccccc2)S(=O)(=O)O)cc1 (stereo not shown) [Compound L319-21-M06],> 50 µM,,,> 50 µM,,,,,,,0.14 µM,> 50 µM,> 50 µM,,,,
O=C(Nc1cccc(OCc2ccccc2)c1)C(=O)Nc1ccccc1NC(=O)C(c1ccccc1)S(=O)(=O)O (stereo not shown) [Compound L319-21-M52],> 50 µM,,,> 50 µM,,,,,,,0.15 µM,> 50 µM,> 50 µM,,,,
Cc1c(Br)cc(NC(=O)C(c2ccccc2)S(=O)(=O)O)cc1Br (stereo not shown) [Compound L319M34],4.5 µM,,> 200,,,,,,,,,,,5.3,> 200,> 100,> 100
O=C(Nc1ccc(OCc2ccccc2)c(Cl)c1)C(c1ccccc1)S(=O)(=O)O (stereo not shown) [Compound L319M50],,,,> 100 µM,,,,,,,2.06 µM,> 100 µM,73 µM,12.1,,,
O=C(Nc1cccc(OCc2ccccc2)c1)C(c1ccccc1)S(=O)(=O)O (stereo not shown) [Compound L319M52],72.3 µM,,> 200,118 µM and > 100 µM,> 200,> 200,> 200,> 200,> 200,> 200,5.08 µM,170 µM and > 100 µM,88 µM,,,,
O=C(Nc1ccc2nc(C(F)(F)F)[nH]c2c1)C(c1ccccc1)S(=O)(=O)O (stereo not shown) [Compound L319M54],7.96 µM and 5 µM,,> 200,> 200 µM,> 200,> 200,> 200,> 200,> 200,> 200,4.25 µM,> 200 µM,180 µM and > 100 µM,5.6,,,
O=C(Nc1ccc(N2CCOCC2)cc1)C(c1ccccc1)S(=O)(=O)O (stereo not shown) [Compound L319M68],20 µM,,> 200,> 200 µM,> 200,> 200,> 200,> 200,> 200,> 200,7.47 µM and 7.5 µM,> 200 µM,> 200 µM,8.1,,,
O=C(Nc1cnc2ccccc2c1)C(c1ccccc1)S(=O)(=O)O (stereo not shown) [Compound L319M88],6.1 µM,,> 200,> 200 µM,> 200,> 200,> 200,> 200,> 200,> 200,8.51 µM and 8.5 µM,> 200 µM,> 200 µM,7.3,,,
O=C(Nc1ccc(-c2ccccc2)cc1)C(c1ccccc1)S(=O)(=O)O (stereo not shown) [Compound L319N08],28.9 µM,,,> 100 µM,,,,,,,,,,,,> 200,71
O=C(Nc1nc2ccccc2s1)C(c1ccccc1)S(=O)(=O)O (stereo not shown) [Compound L319N15],7.33 µM and 8.6 µM,,> 200,> 200 µM,> 200,> 200,> 200,> 200,> 200,> 200,2.1 µM,> 200 µM,34 µM,7.1,,,
O=C(C(c1ccccc1)S(=O)(=O)O)N1CCC(Cc2ccccc2)CC1 (stereo not shown) [Compound L319N46],> 200 µM,,> 200,> 200 µM,> 200,> 200,> 200,> 200,> 200,> 200,> 200 µM,> 200 µM,> 200 µM,,,,
O=C(C(c1ccccc1)S(=O)(=O)O)N1CCC(c2ccc(Cl)c(Cl)c2)CC1 (stereo not shown) [Compound L319N47],115 µM,,160,38 µM,> 200,> 200,50,> 200,> 200,> 200,61 µM,160 µM,21 µM,,,,
